Measured values published in article PMC7180948, “New Insights into 4-Anilinoquinazolines as Inhibitors of Cardiac Troponin I–Interacting Kinase (TNNi3K)” (Molecules, 2020).

Legend:
SNARK = molecular target: T1, SNARK (Homo sapiens, UniProt Q9H093); assay: biochemical; design: KINOMEscan competition binding panel (Eurofins DiscoverX), single concentration, % inhibition; settings: read-out: 7 at 1 µM % inhibition
T1 construct: gene NUAK2
In short: (§1)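 A single 1 µM concentration of each compound is screened across upwards of 400 human kinases using the KINOMEscan format.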

DLK = molecular target: T2, DLK (Homo sapiens, UniProt Q12852); assay: biochemical; design: KINOMEscan competition binding panel (Eurofins DiscoverX), single concentration, % inhibition; settings: read-out: 7 at 1 µM % inhibition
T2 construct: gene MAP3K12
In short: as §1

[1] = molecular target: T3, ABL1(Q252H)-nonphosphorylated (Homo sapiens, UniProt P00519, Q252H); assay: biochemical; design: KINOMEscan competition binding panel (Eurofins DiscoverX), single concentration, % inhibition; settings: read-out: 7 at 1 µM % inhibition
T3 construct: nonphosphorylated
In short: as §1

PFCDPK1(P.falciparum) = molecular target: T4, PFCDPK1(P.falciparum) (Plasmodium falciparum, UniProt P62344); assay: biochemical; design: KINOMEscan competition binding panel (Eurofins DiscoverX), single concentration, % inhibition; settings: read-out: 7 at 1 µM % inhibition (pathogen kinases)
T4 construct: gene CDPK1
In short: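 KINOMEscan binding panel of >400 kinases, run by Eurofins DiscoverX, with compounds tested at a single concentration of 1 µM.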

PLK3 = PLK3 (Homo sapiens, UniProt Q9H4B4); assay: biochemical; design: KINOMEscan competition binding panel (Eurofins DiscoverX), single concentration, % inhibition; settings: read-out: 7 at 1 µM % inhibition
In short: as §1

CDKL1 = CDKL1 (Homo sapiens, UniProt Q00532); assay: biochemical; design: KINOMEscan competition binding panel (Eurofins DiscoverX), single concentration, % inhibition; settings: read-out: 7 at 1 µM % inhibition
In short: as §1

CSNK2A1 = CSNK2A1 (Homo sapiens, UniProt P68400); assay: biochemical; design: KINOMEscan competition binding panel (Eurofins DiscoverX), single concentration, % inhibition; settings: read-out: 7 at 1 µM % inhibition
In short: as §1

CDK4-cyclinD3 = molecular target: T5, CDK4-cyclinD3 (Homo sapiens, UniProt P11802); assay: biochemical; design: KINOMEscan competition binding panel (Eurofins DiscoverX), single concentration, % inhibition; settings: read-out: 7 at 1 µM % inhibition
T5 construct: cyclinD3
In short: as §1

CAMK2B = CAMK2B (Homo sapiens, UniProt Q13554); assay: biochemical; design: KINOMEscan competition binding panel (Eurofins DiscoverX), single concentration, % inhibition; settings: read-out: 7 at 1 µM % inhibition
In short: as §1

ABL1-phosphorylated = molecular target: T6, ABL1-phosphorylated (Homo sapiens, UniProt P00519); assay: biochemical; design: KINOMEscan competition binding panel (Eurofins DiscoverX), single concentration, % inhibition; settings: read-out: 7 at 1 µM % inhibition
T6 construct: phosphorylated
In short: as §1

ACVR2A = ACVR2A (Homo sapiens, UniProt P27037); assay: biochemical; design: KINOMEscan competition binding panel (Eurofins DiscoverX), single concentration, % inhibition; settings: read-out: 7 at 1 µM % inhibition
In short: as §1

ROS1 = ROS1 (Homo sapiens, UniProt P08922); assay: biochemical; design: KINOMEscan competition binding panel (Eurofins DiscoverX), single concentration, % inhibition; settings: read-out: 7 at 1 µM % inhibition
In short: as §1

PRKCH = PRKCH (Homo sapiens, UniProt P24723); assay: biochemical; design: KINOMEscan competition binding panel (Eurofins DiscoverX), single concentration, % inhibition; settings: read-out: 7 at 1 µM % inhibition
In short: as §1

MST1 = molecular target: T7, MST1 (Homo sapiens, UniProt Q13043); assay: biochemical; design: KINOMEscan competition binding panel (Eurofins DiscoverX), single concentration, % inhibition; settings: read-out: 7 at 1 µM % inhibition
T7 construct: gene STK4
In short: as §1

PRKD1 = PRKD1 (Homo sapiens, UniProt Q15139); assay: biochemical; design: KINOMEscan competition binding panel (Eurofins DiscoverX), single concentration, % inhibition; settings: read-out: 7 at 1 µM % inhibition
In short: as §1

ERK4 = molecular target: T8, ERK4 (Homo sapiens, UniProt P31152); assay: biochemical; design: KINOMEscan competition binding panel (Eurofins DiscoverX), single concentration, % inhibition; settings: read-out: 7 at 1 µM % inhibition
T8 construct: gene MAPK4
In short: as §1

PDFRB = molecular target: T9, PDFRB (Homo sapiens, UniProt P09619); assay: KINOMEscan at […], single concentration; format: binding
T9 construct: gene PDGFRB

STK36 = STK36 (Homo sapiens, UniProt Q9NRP7); assay: KINOMEscan at […], single concentration; format: binding
ZAK = molecular target: T10, ZAK (Homo sapiens, UniProt Q9NYL2); assay: KINOMEscan at […], single concentration; format: binding
T10 construct: gene MAP3K20

GAK = GAK (Homo sapiens, UniProt O14976); assay: KINOMEscan at […], single concentration; format: binding
Chain of GAK (O14976 2-1311): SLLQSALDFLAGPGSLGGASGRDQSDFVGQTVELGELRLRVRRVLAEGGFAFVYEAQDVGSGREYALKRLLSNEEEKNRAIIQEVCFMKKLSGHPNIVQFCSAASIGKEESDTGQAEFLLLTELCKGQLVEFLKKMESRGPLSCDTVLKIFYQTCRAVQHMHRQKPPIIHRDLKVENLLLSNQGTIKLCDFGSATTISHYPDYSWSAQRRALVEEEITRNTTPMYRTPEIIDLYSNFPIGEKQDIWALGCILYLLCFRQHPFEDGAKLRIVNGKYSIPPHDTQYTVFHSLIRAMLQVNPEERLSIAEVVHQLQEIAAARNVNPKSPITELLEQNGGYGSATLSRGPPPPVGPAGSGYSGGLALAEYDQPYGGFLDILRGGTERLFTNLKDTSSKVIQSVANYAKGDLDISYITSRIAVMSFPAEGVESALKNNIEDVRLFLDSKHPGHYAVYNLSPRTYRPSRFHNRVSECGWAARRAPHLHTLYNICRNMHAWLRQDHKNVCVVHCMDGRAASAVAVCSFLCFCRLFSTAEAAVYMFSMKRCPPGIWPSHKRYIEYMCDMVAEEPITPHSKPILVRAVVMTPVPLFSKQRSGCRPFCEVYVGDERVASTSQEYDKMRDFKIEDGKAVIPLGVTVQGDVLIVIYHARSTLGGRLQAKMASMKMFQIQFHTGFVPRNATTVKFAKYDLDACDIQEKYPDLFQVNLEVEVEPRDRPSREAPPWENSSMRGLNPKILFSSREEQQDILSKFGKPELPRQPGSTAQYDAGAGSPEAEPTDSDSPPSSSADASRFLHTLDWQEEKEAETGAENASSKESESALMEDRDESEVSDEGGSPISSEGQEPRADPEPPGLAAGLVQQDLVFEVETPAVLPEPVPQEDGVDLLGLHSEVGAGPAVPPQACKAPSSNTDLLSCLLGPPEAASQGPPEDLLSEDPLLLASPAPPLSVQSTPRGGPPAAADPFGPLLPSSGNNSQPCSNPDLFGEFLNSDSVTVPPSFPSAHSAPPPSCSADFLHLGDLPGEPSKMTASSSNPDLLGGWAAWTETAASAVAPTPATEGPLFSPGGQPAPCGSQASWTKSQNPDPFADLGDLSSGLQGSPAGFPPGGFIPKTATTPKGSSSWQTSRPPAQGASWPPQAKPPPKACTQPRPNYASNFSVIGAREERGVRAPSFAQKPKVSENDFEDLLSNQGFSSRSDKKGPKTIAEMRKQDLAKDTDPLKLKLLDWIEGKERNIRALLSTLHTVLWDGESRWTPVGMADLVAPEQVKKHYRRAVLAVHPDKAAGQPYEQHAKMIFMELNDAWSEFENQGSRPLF

T4 sequence (P62344 whole entry): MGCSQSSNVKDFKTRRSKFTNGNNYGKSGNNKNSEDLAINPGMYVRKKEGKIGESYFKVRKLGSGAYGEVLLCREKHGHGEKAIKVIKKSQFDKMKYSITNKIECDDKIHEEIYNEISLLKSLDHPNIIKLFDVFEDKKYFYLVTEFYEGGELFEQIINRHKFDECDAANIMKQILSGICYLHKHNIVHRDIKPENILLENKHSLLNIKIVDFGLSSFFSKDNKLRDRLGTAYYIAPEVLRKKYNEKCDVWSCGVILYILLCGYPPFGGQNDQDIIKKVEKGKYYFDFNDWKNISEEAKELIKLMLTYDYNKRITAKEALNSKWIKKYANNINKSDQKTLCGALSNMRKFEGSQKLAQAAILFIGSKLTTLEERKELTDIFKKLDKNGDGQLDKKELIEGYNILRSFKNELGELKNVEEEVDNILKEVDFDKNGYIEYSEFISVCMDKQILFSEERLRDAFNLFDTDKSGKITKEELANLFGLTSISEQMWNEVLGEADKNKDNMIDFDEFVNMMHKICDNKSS
Chain of CDKL1 (Q00532 whole entry): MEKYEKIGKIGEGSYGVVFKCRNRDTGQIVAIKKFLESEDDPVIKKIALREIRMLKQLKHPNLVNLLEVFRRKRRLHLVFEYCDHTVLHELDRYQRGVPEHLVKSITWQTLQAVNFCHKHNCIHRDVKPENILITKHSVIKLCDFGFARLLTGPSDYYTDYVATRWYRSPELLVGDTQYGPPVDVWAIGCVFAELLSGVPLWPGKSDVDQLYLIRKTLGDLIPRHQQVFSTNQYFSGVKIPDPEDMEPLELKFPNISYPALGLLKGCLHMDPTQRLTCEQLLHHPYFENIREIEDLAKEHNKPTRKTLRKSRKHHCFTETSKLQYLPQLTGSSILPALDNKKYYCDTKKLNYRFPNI
Chain of CAMK2B (Q13554 whole entry): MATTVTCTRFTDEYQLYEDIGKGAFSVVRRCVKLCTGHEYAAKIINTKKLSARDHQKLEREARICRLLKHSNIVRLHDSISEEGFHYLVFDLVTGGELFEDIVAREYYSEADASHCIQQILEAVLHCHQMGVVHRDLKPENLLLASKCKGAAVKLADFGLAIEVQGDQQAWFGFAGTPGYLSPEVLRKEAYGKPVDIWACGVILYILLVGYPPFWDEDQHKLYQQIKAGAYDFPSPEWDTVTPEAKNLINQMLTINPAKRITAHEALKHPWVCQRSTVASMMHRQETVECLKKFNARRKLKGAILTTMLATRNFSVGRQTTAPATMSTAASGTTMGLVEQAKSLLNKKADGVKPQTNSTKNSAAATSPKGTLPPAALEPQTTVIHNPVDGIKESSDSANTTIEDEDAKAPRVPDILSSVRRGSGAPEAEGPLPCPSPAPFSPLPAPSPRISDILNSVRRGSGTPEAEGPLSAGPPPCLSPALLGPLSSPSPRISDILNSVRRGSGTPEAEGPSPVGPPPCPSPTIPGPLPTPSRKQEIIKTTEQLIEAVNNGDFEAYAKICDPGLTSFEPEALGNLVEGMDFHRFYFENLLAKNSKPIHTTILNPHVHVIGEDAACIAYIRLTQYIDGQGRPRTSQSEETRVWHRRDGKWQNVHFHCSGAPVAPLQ
T5 sequence (P11802 whole entry): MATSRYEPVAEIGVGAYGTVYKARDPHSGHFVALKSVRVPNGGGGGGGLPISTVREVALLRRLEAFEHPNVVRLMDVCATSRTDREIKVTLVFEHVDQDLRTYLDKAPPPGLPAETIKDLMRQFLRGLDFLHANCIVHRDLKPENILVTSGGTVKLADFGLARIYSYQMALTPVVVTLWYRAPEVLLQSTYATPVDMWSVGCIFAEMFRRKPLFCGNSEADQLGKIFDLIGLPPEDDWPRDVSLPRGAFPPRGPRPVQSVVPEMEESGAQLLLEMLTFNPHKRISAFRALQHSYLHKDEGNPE
T5 sequence (P30281 whole entry partner): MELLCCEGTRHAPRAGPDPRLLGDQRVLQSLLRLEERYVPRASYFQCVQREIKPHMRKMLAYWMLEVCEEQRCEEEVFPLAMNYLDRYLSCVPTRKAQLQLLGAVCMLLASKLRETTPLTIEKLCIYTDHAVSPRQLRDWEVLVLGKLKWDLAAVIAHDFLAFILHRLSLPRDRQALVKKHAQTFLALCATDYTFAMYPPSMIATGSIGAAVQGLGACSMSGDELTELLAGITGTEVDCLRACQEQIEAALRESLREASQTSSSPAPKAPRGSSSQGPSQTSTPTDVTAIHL
Chain of PRKCH (P24723 whole entry): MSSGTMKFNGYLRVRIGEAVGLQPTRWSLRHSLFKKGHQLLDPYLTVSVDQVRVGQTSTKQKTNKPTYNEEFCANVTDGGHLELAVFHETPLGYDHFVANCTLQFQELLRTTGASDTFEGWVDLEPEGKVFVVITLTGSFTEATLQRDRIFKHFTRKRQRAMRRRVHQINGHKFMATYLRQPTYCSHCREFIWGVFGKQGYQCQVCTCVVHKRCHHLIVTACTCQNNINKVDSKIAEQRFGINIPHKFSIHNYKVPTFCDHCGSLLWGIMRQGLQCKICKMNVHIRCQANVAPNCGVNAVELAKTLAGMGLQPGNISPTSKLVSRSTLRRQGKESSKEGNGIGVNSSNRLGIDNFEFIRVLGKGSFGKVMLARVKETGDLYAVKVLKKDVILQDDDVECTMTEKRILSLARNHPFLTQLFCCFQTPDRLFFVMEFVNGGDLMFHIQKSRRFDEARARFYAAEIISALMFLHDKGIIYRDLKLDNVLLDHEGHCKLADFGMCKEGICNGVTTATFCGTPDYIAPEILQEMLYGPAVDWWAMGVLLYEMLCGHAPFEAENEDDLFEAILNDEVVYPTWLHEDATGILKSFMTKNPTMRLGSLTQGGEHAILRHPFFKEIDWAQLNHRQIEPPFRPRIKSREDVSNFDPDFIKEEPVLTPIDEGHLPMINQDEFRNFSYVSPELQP
T8 sequence (P31152 whole entry): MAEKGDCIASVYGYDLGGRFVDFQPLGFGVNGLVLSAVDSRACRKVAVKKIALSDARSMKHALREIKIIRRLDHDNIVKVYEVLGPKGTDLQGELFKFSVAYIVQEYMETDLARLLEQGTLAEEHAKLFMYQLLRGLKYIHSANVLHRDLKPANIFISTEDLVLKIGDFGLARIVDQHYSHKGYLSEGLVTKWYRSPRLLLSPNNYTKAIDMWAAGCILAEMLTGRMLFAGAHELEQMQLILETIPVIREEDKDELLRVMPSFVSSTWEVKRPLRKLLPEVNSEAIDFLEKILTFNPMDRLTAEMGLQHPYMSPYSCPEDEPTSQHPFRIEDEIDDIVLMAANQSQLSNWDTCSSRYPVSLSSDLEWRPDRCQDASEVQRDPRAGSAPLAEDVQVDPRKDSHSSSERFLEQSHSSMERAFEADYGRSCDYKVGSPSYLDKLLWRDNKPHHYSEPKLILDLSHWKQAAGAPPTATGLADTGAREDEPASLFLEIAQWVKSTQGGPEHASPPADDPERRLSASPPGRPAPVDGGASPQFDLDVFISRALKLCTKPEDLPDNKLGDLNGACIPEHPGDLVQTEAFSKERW

In the case of `CNS(=O)(=O)c1ccc(N(C)C)c(Nc2ncnc3cc(OC)c(OC)cc23)c1` [compound 7, 3-((6,7-dimethoxyquinazolin-4-yl)amino)-4-(dimethylamino)-N-methylbenzenesulfonamide], the inhibition at 1 µM (SNARK) is reported as 0%, the inhibition at 1 µM (DLK) is reported as 21% and the inhibition at 1 µM [1] is reported as 50%. It also gave an inhibition at 1 µM (PFCDPK1(P.falciparum)) of 96.3%, an inhibition at 1 µM (PLK3) of 0% and an inhibition at 1 µM (CDKL1) of 0%. It also gave an inhibition at 1 µM (CSNK2A1) of 0%, an inhibition at 1 µM (CDK4-cyclinD3) of 37% and an inhibition at 1 µM (CAMK2B) of 11%. The inhibition at 1 µM (ABL1-phosphorylated) was 26%, the inhibition at 1 µM (ACVR2A) was 0% and the inhibition at 1 µM (ROS1) was 0%. For the same compound, the inhibition at 1 µM (PRKCH) was 13%, the inhibition at 1 µM (MST1) was 21% and the inhibition at 1 µM (PRKD1) was 20%. For the same compound, the inhibition at 1 µM (ERK4) was 0%, the inhibition at 1 µM (PDFRB) was 91% and the inhibition at 1 µM (STK36) was 94%. It also gave an inhibition at 1 µM (ZAK) of 93% and an inhibition at 1 µM (GAK) of 92%.
